Reference: US20160058872A1, “IMIDE-BASED MODULATORS OF PROTEOLYSIS AND ASSOCIATED METHODS OF USE” (Arvinas, Inc., priority 2014, published 2016)

Test system: c-Myc
Assay: c-Myc protein level by immunoblot in BL cell lines
Assay type: cell-based
Settings: 24 hours, washout
Experimental: Cultured cells were collected in lysis buffer containing 40 mM HEPES (pH 7.4), 140 mM NaCl, 2.5 mM EDTA, 1% NP-40, 0.1% SDS and protease inhibitor cocktail. After 10 minutes of centrifugation (14000 rpm), supernatant was collected for protein concentration determination by BCA method and subjected for immunoblotting by standard protocol. Western blot results were visualized using Bio-Rad Clarity ECL Western Blotting Substrate on Bio-Rad ChemiDoc™ MP imaging system.
A separate set of cells were treated in the same manner, except that DMSO was used in place of the inhibitor. Following treatment, cell lysates were collected and analyzed by immunoblot for c-Myc and Actin.
Cells were re-seeded and incubated without inhibitor for 0 hr, 0.5 hr, 1.0 hr, 2.0 hr, 3.0 hr, 4.0 hr, and 6.0 hr. Cell lysates were then collected at the various time points and analyzed by immunoblot for c-Myc and Actin. In a parallel control experiment, NAMALWA cells were treated in the same manner, except DMSO was used in place of JQ1.
After treatment, the cells were either lysed (to evaluate the suppression of c-Myc by the inhibitors) or washed to remove the inhibitor, re-seeded, and incubated without inhibitor for 4.0 hours (to evaluate the reversibility of c-Myc suppression). Cell lysates were collected and analyzed by immunoblot for c-Myc and Actin.
Following treatment, cell lysates were collected and analyzed by immunoblot for BRD4, c-Myc and Actin.
Cells were re-seeded in fresh medium and incubated without any compound for 0 hr, 2.0 hr, 4.0 hr, 6.0 hr, and 24.0 hr. In a parallel control experiment, cells were treated in the same manner, except DMSO was used in place of inhibitor. Lysates were collected and analyzed by immunoblot for BRD4, c-Myc, and Actin.

In the case of `Cc1sc2c(c1C)C(c1ccc(Cl)cc1)=N[C@@H](CC(=O)OC(C)(C)C)c1nnc(C)n1-2` [JQ1], the “time to recovery of c-Myc to control level after removal” value (NAMALWA, 1.0 μM) is reported as ≤ 4 h, the “time to return of c-Myc to control level post removal” value (NAMALWA, after 1000 nM) is reported as ≤ 3.0 h and the “time to significant c-Myc increase after removal” value (Ramos, after 1000 nM) is reported as ≤ 4.0 h.
